# Test results: US4542137A, “Alkylaminodesoxy-1.4;3.6-dianhydrohexitol nitrates substituted by purine bases and pharmaceutical compositions” (priority 1980, dated 1985)
# System: mongrel dogs
# Assay: circulatory pharmacological effectiveness on narcotised dogs, intravenous
# Format: in vivo, dog
# Conditions: dog i.v. ISDN/9c 1, 1d 0.5 mg/kg
smiles,measurement,setting,value
"CN(CCCn1cnc2c1c(=O)n(C)c(=O)n2C)[C@H]1CO[C@H]2[C@@H]1OC[C@@H]2O[N+](=O)[O-] [Example 9c, 5-[N-Methyl-N-(3-theophyllin-7-ylpropyl)-amino]-5-desoxy-1.4;3.6-dianhydro-L-iditol 2-nitrate]",APdiast: diastolic aorta pressure,2 min,58.1 mm.Hg
same,APsyst: systolic aorta pressure,2 min,105.0 mm.Hg
same,BFFem: blood flow in the A. femoralis referred to 20 kg body weight,2 min,34.6 mL/min
same,HF: heart frequency,2 min,163.2
same,"HLL: heart capacity left, referred to 20 kg body weight",2 min,0.51 W
same,"HLR: heart capacity right, referred to 20 kg body weight",2 min,67.6 mW
same,"HZV: heart minute volume, referred to 20 kg body weight",2 min,3.15 L/min
same,LVEDP: end diastolic pressure in the left ventricle,2 min,3.60 mm.Hg
same,"SV: beat volume, referred to 20 kg body weight",2 min,20.0 mL
same,"WAP: pulmonalis resistance, referred to 20 kg body weight",2 min,0.30 U
same,"WFem: moralis resistance, referred to 20 kg body weight",2 min,0.33 KU
same,"WTP: total peripheral resistance, referred to 20 kg body weight",2 min,3.07 U
same,dp/dt: rate of pressure increase in the left ventricle,2 min,3045.0 mm.Hg/sec
same,APdiast: diastolic aorta pressure,5 min,79.7 mm.Hg
same,APsyst: systolic aorta pressure,5 min,126.6 mm.Hg
same,BFFem: blood flow in the A. femoralis referred to 20 kg body weight,5 min,39.1 mL/min
same,HF: heart frequency,5 min,129.7
same,"HLL: heart capacity left, referred to 20 kg body weight",5 min,0.56 W
same,"HLR: heart capacity right, referred to 20 kg body weight",5 min,66.9 mW
same,"HZV: heart minute volume, referred to 20 kg body weight",5 min,2.73 L/min
same,LVEDP: end diastolic pressure in the left ventricle,5 min,4.64 mm.Hg
same,"SV: beat volume, referred to 20 kg body weight",5 min,21.1 mL
same,"WAP: pulmonalis resistance, referred to 20 kg body weight",5 min,0.33 U
same,"WFem: moralis resistance, referred to 20 kg body weight",5 min,0.37 KU
same,dp/dt: rate of pressure increase in the left ventricle,5 min,2287.5 mm.Hg/sec
same,APdiast: diastolic aorta pressure,7 min,82.5 mm.Hg
same,APsyst: systolic aorta pressure,7 min,129.4 mm.Hg
same,BFFem: blood flow in the A. femoralis referred to 20 kg body weight,7 min,42.5 mL/min
same,HF: heart frequency,7 min,123.2
same,"HLL: heart capacity left, referred to 20 kg body weight",7 min,0.58 W
same,"HLR: heart capacity right, referred to 20 kg body weight",7 min,64.2 mW
same,"HZV: heart minute volume, referred to 20 kg body weight",7 min,2.75 L/min
same,LVEDP: end diastolic pressure in the left ventricle,7 min,4.92 mm.Hg
same,"SV: beat volume, referred to 20 kg body weight",7 min,22.4 mL
same,"WFem: moralis resistance, referred to 20 kg body weight",7 min,0.34 KU
same,"WTP: total peripheral resistance, referred to 20 kg body weight",7 min,4.77 U
same,dp/dt: rate of pressure increase in the left ventricle,7 min,2325.0 mm.Hg/sec
same,APdiast: diastolic aorta pressure,10 min,81.6 mm.Hg
same,APsyst: systolic aorta pressure,10 min,127.5 mm.Hg
same,HF: heart frequency,10 min,120.5
same,"HLL: heart capacity left, referred to 20 kg body weight",10 min,0.57 W
same,"HLR: heart capacity right, referred to 20 kg body weight",10 min,68.8 mW
same,"HZV: heart minute volume, referred to 20 kg body weight",10 min,2.76 L/min
same,LVEDP: end diastolic pressure in the left ventricle,10 min,4.92 mm.Hg
same,"SV: beat volume, referred to 20 kg body weight",10 min,23.0 mL
same,"WAP: pulmonalis resistance, referred to 20 kg body weight",10 min,0.32 U
same,"WFem: moralis resistance, referred to 20 kg body weight",10 min,0.32 KU
same,"WTP: total peripheral resistance, referred to 20 kg body weight",10 min,4.68 U
same,APdiast: diastolic aorta pressure,15 min,81.6 mm.Hg
same,APsyst: systolic aorta pressure,15 min,128.4 mm.Hg
same,BFFem: blood flow in the A. femoralis referred to 20 kg body weight,15 min,43.4 mL/min
same,HF: heart frequency,15 min,115.2
same,"HLL: heart capacity left, referred to 20 kg body weight",15 min,0.57 W
same,"HLR: heart capacity right, referred to 20 kg body weight",15 min,63.6 mW
same,"HZV: heart minute volume, referred to 20 kg body weight",15 min,2.77 L/min
same,LVEDP: end diastolic pressure in the left ventricle,15 min,5.20 mm.Hg
same,"SV: beat volume, referred to 20 kg body weight",15 min,24.2 mL
same,"WAP: pulmonalis resistance, referred to 20 kg body weight",15 min,0.30 U
same,"WFem: moralis resistance, referred to 20 kg body weight",15 min,0.31 KU
same,"WTP: total peripheral resistance, referred to 20 kg body weight",15 min,4.65 U
same,dp/dt: rate of pressure increase in the left ventricle,15 min,2250.0 mm.Hg/sec
same,APdiast: diastolic aorta pressure,20 min,82.5 mm.Hg
same,APsyst: systolic aorta pressure,20 min,128.4 mm.Hg
same,BFFem: blood flow in the A. femoralis referred to 20 kg body weight,20 min,44.2 mL/min
same,HF: heart frequency,20 min,114.5
same,"HLL: heart capacity left, referred to 20 kg body weight",20 min,0.55 W
same,"HLR: heart capacity right, referred to 20 kg body weight",20 min,63.1 mW
same,"HZV: heart minute volume, referred to 20 kg body weight",20 min,2.65 L/min
same,LVEDP: end diastolic pressure in the left ventricle,20 min,5.48 mm.Hg
same,"SV: beat volume, referred to 20 kg body weight",20 min,23.3 mL
same,"WAP: pulmonalis resistance, referred to 20 kg body weight",20 min,0.30 U
same,"WFem: moralis resistance, referred to 20 kg body weight",20 min,0.31 KU
same,"WTP: total peripheral resistance, referred to 20 kg body weight",20 min,4.90 U
same,dp/dt: rate of pressure increase in the left ventricle,20 min,2221.9 mm.Hg/sec
same,APdiast: diastolic aorta pressure,25 min,83.4 mm.Hg
same,APsyst: systolic aorta pressure,25 min,131.2 mm.Hg
same,BFFem: blood flow in the A. femoralis referred to 20 kg body weight,25 min,41.3 mL/min
same,"HLL: heart capacity left, referred to 20 kg body weight",25 min,0.56 W
same,"HLR: heart capacity right, referred to 20 kg body weight",25 min,60.5 mW
same,"HZV: heart minute volume, referred to 20 kg body weight",25 min,2.65 L/min
same,LVEDP: end diastolic pressure in the left ventricle,25 min,5.62 mm.Hg
same,"SV: beat volume, referred to 20 kg body weight",25 min,23.7 mL
same,"WAP: pulmonalis resistance, referred to 20 kg body weight",25 min,0.27 U
same,"WFem: moralis resistance, referred to 20 kg body weight",25 min,0.33 KU
same,"WTP: total peripheral resistance, referred to 20 kg body weight",25 min,5.00 U
same,dp/dt: rate of pressure increase in the left ventricle,25 min,2221.9 mm.Hg/sec
same,APdiast: diastolic aorta pressure,30 min,81.6 mm.Hg
same,APsyst: systolic aorta pressure,30 min,134.1 mm.Hg
same,BFFem: blood flow in the A. femoralis referred to 20 kg body weight,30 min,44.2 mL/min
same,HF: heart frequency,30 min,111.5
same,"HLL: heart capacity left, referred to 20 kg body weight",30 min,0.57 W
same,"HLR: heart capacity right, referred to 20 kg body weight",30 min,60.5 mW
same,"HZV: heart minute volume, referred to 20 kg body weight",30 min,2.68 L/min
same,LVEDP: end diastolic pressure in the left ventricle,30 min,5.62 mm.Hg
same,"SV: beat volume, referred to 20 kg body weight",30 min,24.2 mL
same,"WFem: moralis resistance, referred to 20 kg body weight",30 min,0.31 KU
same,"WTP: total peripheral resistance, referred to 20 kg body weight",30 min,4.87 U
same,dp/dt: rate of pressure increase in the left ventricle,30 min,2221.9 mm.Hg/sec
same,APdiast: diastolic aorta pressure,40 min,86.2 mm.Hg
same,APsyst: systolic aorta pressure,40 min,136.9 mm.Hg
